These results are taken from ChEMBL document CHEMBL1201862, “PubChem BioAssay data set” (2004).

Molecules are shown by their SMILES.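 96-well plates; 48 h exposure; 5 concentrations. Endpoints by linear interpolation between flanking doses. Not reached: highest tested concentration assigned. GI50: concentration for 50% inhibition of growth.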 The source made the active and inactive calls. No stated cut-off is given here; in the data, active = GI50 up to about 1.1 µM and inactive = higher.

Among the test systems are DMS-273; HCT-15; HOP-62; HOP-92; HT-29; IGROV-1; KM12; MOLT-4; NCI-H522; OVCAR-3; SK-MEL-2; SK-MEL-5; SW-620; TK-10; UACC-62; UO-31; DU-145; MDA-MB-435; MDA-N; NCI/ADR-RES.
Assay in all cases: growth of human tumour cells (NCI), 48 h

`CCCN1C(=O)C/C(=C\C(C)=O)Nc2ccccc21`: the GI50 in the assay on DMS-273 is > 100 µM (inactive); in the assay with HCT-15 it was more than 100 µM; in the assay on HOP-62, > 100 µM (inactive); in the assay with HOP-92, > 100 µM (inactive); with HT-29, > 100 µM (inactive); in the assay on IGROV-1, > 100 µM (inactive). Also, the GI50 in the assay with KM12, in the assay on MOLT-4, with NCI-H522, in the assay with OVCAR-3, in the assay with SK-MEL-2 and in the assay with SK-MEL-5 was > 100 µM (inactive) throughout. Besides, the GI50 in the assay with SW-620, in the assay with TK-10, in the assay on UACC-62 and in the assay on UO-31 was > 100 µM (inactive) throughout.

On to `Cc1ccc(S(=O)(=O)SC(C)(C)C)cc1`, for which the GI50 is 19.8 µM (inactive) in the assay on DMS-273; > 100 µM (inactive) with DU-145; 23.4 µM with HCT-15; > 60.3 µM (inactive) with HOP-62; 63 µM (inactive) in the assay on HOP-92; 13.1 µM (inactive) with HT-29. Further, the GI50 in the assay with IGROV-1 was 18.9 µM (inactive); in the assay with KM12, 45.2 µM (inactive); in the assay on MDA-MB-435 it was 31.4 µM (inactive); in the assay with MDA-N, > 10 µM (inactive); in the assay on MOLT-4, 18.2 µM (inactive); with NCI-H522 it was 14.7 µM (inactive). For the same molecule, the GI50 with NCI/ADR-RES was 32.6 µM (inactive); in the assay on OVCAR-3 it was 20.9 µM (inactive); in the assay with SK-MEL-2 it was 33.2 µM (inactive); with SK-MEL-5, 46.1 µM (inactive); in the assay with SW-620 it was 22.2 µM (inactive); in the assay with TK-10, 40.3 µM (inactive). Moreover, the GI50 with UACC-62 is 19.9 µM (inactive); in the assay on UO-31 it was > 100 µM (inactive).

As to `O=S(=O)(c1ccccc1)n1cnc(CCc2ccccc2)n1`, the GI50 was > 100 µM (inactive) in the assay with DMS-273; more than 100 µM with HCT-15; > 100 µM (inactive) with HOP-62; > 100 µM (inactive) in the assay with HOP-92; > 100 µM (inactive) with HT-29; > 100 µM (inactive) in the assay on IGROV-1. Further, the GI50 with KM12, in the assay with MOLT-4, in the assay with NCI-H522, with OVCAR-3, in the assay with SK-MEL-2 and in the assay on SK-MEL-5 was > 100 µM (inactive) each time. In addition, the GI50 with SW-620, with TK-10, in the assay with UACC-62 and in the assay on UO-31 was > 100 µM (inactive) throughout.

`N=C(N)NS(=O)(=O)c1ccc(Nc2c3ccccc3nc3c(C(=O)Nc4ccc(S(N)(=O)=O)cc4)cccc23)cc1`: the GI50 in the assay on DMS-273 was > 100 µM (inactive); in the assay with HCT-15 it was more than 100 µM; with HOP-62, > 100 µM (inactive); in the assay on HOP-92, 47.9 µM (inactive); in the assay with HT-29, > 100 µM (inactive); with IGROV-1 it was > 100 µM (inactive). In addition, the GI50 in the assay with KM12 is > 100 µM (inactive); in the assay on MOLT-4, > 100 µM (inactive); with NCI-H522, 15.8 µM (inactive); in the assay with OVCAR-3, 36.8 µM (inactive); in the assay on SK-MEL-2, 42.5 µM (inactive); in the assay with SK-MEL-5, 78.9 µM (inactive). Besides, the GI50 in the assay on SW-620 is > 100 µM (inactive); in the assay with TK-10 it was > 100 µM (inactive); in the assay with UACC-62 it was 93.3 µM (inactive); in the assay on UO-31, > 100 µM (inactive).

In the case of `COC1=CC(=O)c2c(cc3c(c2O)-c2c(OC)cc4cc5c(c(O)c4c2OC(=O)CC(C)(O)C3)C(=O)CC(C)(O)C5)C1=O` (configuration not stated), the GI50 in the assay on DMS-273 was 1.64 µM (inactive); in the assay on HCT-15 it was 1.95 µM; with HOP-62, 1.21 µM (inactive); with HOP-92, 1.95 µM (inactive); in the assay on HT-29, 1.96 µM (inactive); with IGROV-1, 1.9 µM (inactive). Moreover, the GI50 was 2.41 µM (inactive) with KM12; 2.27 µM (inactive) in the assay on MOLT-4; 1.32 µM (inactive) with NCI-H522; 0.577 µM (active) in the assay on OVCAR-3; 1.28 µM (inactive) with SK-MEL-2; 0.237 µM (active) with SK-MEL-5. In addition, the GI50 is 2.37 µM (inactive) in the assay on SW-620, 3.85 µM (inactive) in the assay with TK-10, 1.19 µM (inactive) in the assay on UACC-62 and 1.73 µM (inactive) with UO-31.

Turning to `Cc1ccc(C(=O)/C=C/c2cccc([N+](=O)[O-])c2)cc1`, the GI50 was > 83.4 µM (inactive) in the assay with DMS-273; 21.6 µM in the assay on HCT-15; > 100 µM (inactive) in the assay on HOP-62; > 100 µM (inactive) in the assay on HOP-92; 29.3 µM (inactive) with HT-29; > 67.9 µM (inactive) in the assay on IGROV-1. Moreover, the GI50 in the assay with KM12 is 24.1 µM (inactive); in the assay on MOLT-4, 4.7 µM (inactive); with NCI-H522 it was 62.5 µM (inactive); in the assay on OVCAR-3, 54.1 µM (inactive); in the assay on SK-MEL-2, > 100 µM (inactive); in the assay on SK-MEL-5, > 100 µM (inactive). The GI50 with SW-620 is 21.6 µM (inactive); in the assay with TK-10 it was > 100 µM (inactive); in the assay with UACC-62 it was > 100 µM (inactive); with UO-31, 46.9 µM (inactive).

Turning to `CC1=Nc2c(O)nc(S)nc2NC(c2c(Cl)cccc2Cl)C1` (configuration not stated), the GI50 is 1.95 µM (inactive) in the assay with DMS-273; 1.95 µM (inactive) in the assay with DU-145; 3.05 µM with HCT-15; 6.84 µM (inactive) in the assay with HOP-62; 9.31 µM (inactive) in the assay on HOP-92; 0.998 µM (active) in the assay with HT-29. For the same molecule, the GI50 was 2.36 µM (inactive) in the assay with IGROV-1; 1.75 µM (inactive) in the assay on KM12; 1.49 µM (inactive) with MDA-MB-435; 0.552 µM (active) in the assay on MDA-N; 0.646 µM (active) in the assay with MOLT-4; 1.98 µM (inactive) in the assay on NCI-H522. For the same molecule, the GI50 in the assay on NCI/ADR-RES is 0.193 µM (active); with OVCAR-3, 1.58 µM (inactive); with SK-MEL-2 it was 18 µM (inactive); in the assay with SK-MEL-5, 3.58 µM (inactive); with SW-620, 0.971 µM (active); in the assay on TK-10 it was 10.1 µM (inactive). The GI50 is 1.78 µM (inactive) in the assay on UACC-62 and 5.19 µM (inactive) with UO-31.

Take `O=C(c1ccccc1)c1oc2ccc(Br)cc2c1-c1cnn(-c2ccccc2)c1`: the GI50 was > 100 µM (inactive) in the assay on DMS-273; more than 100 µM in the assay on HCT-15; > 100 µM (inactive) in the assay with HOP-62; > 100 µM (inactive) in the assay with HOP-92; > 100 µM (inactive) in the assay on HT-29; > 100 µM (inactive) with IGROV-1. The GI50 in the assay on KM12 was > 100 µM (inactive); with MOLT-4 it was > 100 µM (inactive); in the assay on NCI-H522 it was 7.48 µM (inactive); in the assay with OVCAR-3 it was > 100 µM (inactive); in the assay on SK-MEL-2 it was > 100 µM (inactive); with SK-MEL-5 it was > 10 µM (inactive). In addition, the GI50 with SW-620 is > 10 µM (inactive); with TK-10 it was > 10 µM (inactive); in the assay on UACC-62, > 100 µM (inactive); in the assay with UO-31 it was > 100 µM (inactive).

With `ClCCCCOC1CCCCO1` (configuration not stated), the GI50 with DMS-273 is > 100 µM (inactive); in the assay with HCT-15 it was more than 100 µM; in the assay on HOP-62, > 100 µM (inactive); with HOP-92 it was > 100 µM (inactive); with HT-29 it was > 100 µM (inactive); with IGROV-1, > 100 µM (inactive). The GI50 in the assay with KM12, in the assay on MOLT-4, in the assay with NCI-H522, in the assay with OVCAR-3, in the assay on SK-MEL-2 and in the assay on SK-MEL-5 was > 100 µM (inactive) throughout. Moreover, the GI50 in the assay on SW-620, in the assay on TK-10, in the assay with UACC-62 and in the assay on UO-31 was > 100 µM (inactive) each time.

Turning to `C=C1C(C)C2C(Cc3ccccc3)NC(=O)C23C(OC(C)=O)/C=C/C(C)(O)CC(C)C/C=C/C3C1O` (configuration not stated), the GI50 is 6.1 µM (inactive) in the assay with DMS-273; > 100 µM (inactive) in the assay with DU-145; 2.7 µM in the assay with HCT-15; 0.0435 µM (active) in the assay with HOP-62; 0.154 µM (active) in the assay on HOP-92; 0.138 µM (active) with HT-29. Further, the GI50 with IGROV-1 is 1.32 µM (inactive); with KM12, 97.3 µM (inactive); in the assay on MDA-MB-435, 32.9 µM (inactive); in the assay on MDA-N, > 100 µM (inactive); in the assay on MOLT-4, 5.15 µM (inactive); in the assay with NCI-H522 it was 2.26 µM (inactive). Moreover, the GI50 was 57 µM (inactive) in the assay with NCI/ADR-RES; 2.19 µM (inactive) in the assay on OVCAR-3; 8.97 µM (inactive) with SK-MEL-2; 3.05 µM (inactive) in the assay with SK-MEL-5; 90.6 µM (inactive) in the assay with SW-620; 60.1 µM (inactive) with TK-10. In addition, the GI50 with UACC-62 is 18.2 µM (inactive); with UO-31, 0.0618 µM (active).
